This is an account of results in ChEMBL document CHEMBL1212733, “Chemical genomics in Escherichia coli identifies an inhibitor of bacterial lipoprotein targeting” (Nat Chem Biol, 2009).

Experiment [1] concerns Escherichia coli. The experiment can be described thus: Antibacterial activity against Escherichia coli K-12 MG1655 after 16 hrs by microbroth dilution method. Type of experiment: functional. Conditions: K-12 MG1655, 16 h. A general note: Broth dilution looks for growth in wells or tubes with falling amounts of substance.
Experiment [2] deals with tRNA threonylcarbamoyladenosine biosynthesis protein TsaE (Escherichia coli (strain K12)) (UniProt P0AF67). The experiment can be described thus: Inhibition of IPTG-stimulated Escherichia coli K-12 yjeE at 4 fold MIC by microarray analysis.
For experiment [3], the target named is Small ribosomal subunit protein bS18 (Escherichia coli (strain K12)) (UniProt P0A7T7). As to the kind of experiment: Inhibition of IPTG-stimulated Escherichia coli K-12 rpSR at 4 fold MIC by microarray analysis.
The target in experiment [4] is T1, Dihydrofolate synthase/folylpolyglutamate synthase (Escherichia coli (strain K12)) (UniProt P08192).
T1 sequence (whole entry): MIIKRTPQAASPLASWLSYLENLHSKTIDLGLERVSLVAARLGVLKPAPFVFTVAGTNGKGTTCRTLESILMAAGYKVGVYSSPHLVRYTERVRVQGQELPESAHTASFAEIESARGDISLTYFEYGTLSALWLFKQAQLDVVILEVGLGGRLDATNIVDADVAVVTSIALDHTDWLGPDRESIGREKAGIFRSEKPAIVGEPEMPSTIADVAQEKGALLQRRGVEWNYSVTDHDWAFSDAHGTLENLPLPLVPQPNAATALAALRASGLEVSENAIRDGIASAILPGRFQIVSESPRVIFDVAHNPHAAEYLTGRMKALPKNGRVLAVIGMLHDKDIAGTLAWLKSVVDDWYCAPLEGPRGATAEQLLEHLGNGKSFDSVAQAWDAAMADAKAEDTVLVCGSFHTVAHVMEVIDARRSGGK
The experiment can be described thus: Inhibition of IPTG-stimulated Escherichia coli K-12 folC at 4 fold MIC by microarray analysis.

The target of experiment [5] is T2, Outer membrane protein TolC (Escherichia coli (strain K12)) (UniProt P02930).
T2 sequence (whole entry): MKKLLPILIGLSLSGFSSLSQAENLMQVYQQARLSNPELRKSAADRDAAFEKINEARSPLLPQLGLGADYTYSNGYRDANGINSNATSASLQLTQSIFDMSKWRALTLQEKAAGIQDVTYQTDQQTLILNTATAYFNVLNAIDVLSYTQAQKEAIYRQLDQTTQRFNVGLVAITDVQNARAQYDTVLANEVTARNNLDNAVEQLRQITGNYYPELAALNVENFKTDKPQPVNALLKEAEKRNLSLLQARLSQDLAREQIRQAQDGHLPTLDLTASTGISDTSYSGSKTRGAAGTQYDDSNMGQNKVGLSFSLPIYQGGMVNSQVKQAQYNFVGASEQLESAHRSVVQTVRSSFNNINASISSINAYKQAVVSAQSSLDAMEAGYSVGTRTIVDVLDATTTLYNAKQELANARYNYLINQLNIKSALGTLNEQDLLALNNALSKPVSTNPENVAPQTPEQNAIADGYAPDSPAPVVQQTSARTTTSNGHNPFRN
The experiment can be described thus: Inhibition of IPTG-stimulated Escherichia coli K-12 tolC at 8 fold MIC by microarray analysis.

Experiment [6] has as its target tRNA threonylcarbamoyladenosine biosynthesis protein TsaE (Escherichia coli (strain K12)) (UniProt P0AF67). The experiment can be described thus: Inhibition of IPTG-stimulated Escherichia coli K-12 yjeE at 8 fold MIC by microarray analysis.
The target of experiment [7] is Small ribosomal subunit protein bS18 (Escherichia coli (strain K12)) (UniProt P0A7T7). As to the kind of experiment: Inhibition of IPTG-stimulated Escherichia coli K-12 rpSR at 8 fold MIC by microarray analysis.
The target in experiment [8] is T2, Outer membrane protein TolC (Escherichia coli (strain K12)). As to the kind of experiment: Inhibition of IPTG-stimulated Escherichia coli K-12 tolC at 4 fold MIC by microarray analysis.

≈ marks a conversion by molar mass, not a printed value. Calls of active or inactive are those of the source. The rule behind the calls is not given here. Where only a bound is given, the exact number is not on record here.

Consider `Clc1ccc(CSC2=NCN(CCc3ccccc3)CN2)cc1`, for which the MIC in experiment [1] was 8 µg/mL (≈ 23.1 µM).
The compound `COc1ccc(CN2CN=C(SCc3ccc(Cl)cc3)NC2)cc1OC` showed an MIC in experiment [1] of 32 µg/mL (≈ 81.6 µM).
`COc1ccc(CCN2CN=C(SCc3ccc([N+](=O)[O-])cc3)NC2)cc1OC` returned an MIC in experiment [1] greater than 256 µg/mL.
Consider `COc1ccc(CCN2CN=C(SCc3ccc(C)cc3)NC2)cc1OC`, for which it took 64 µg/mL (≈ 166 µM) to inhibit growth in experiment [1] (MIC).
Regarding `CCN1CN=C(SCc2ccc(Cl)cc2)NC1`, the minimum inhibitory concentration (MIC) in experiment [1] turned out to be 8 µg/mL (≈ 29.7 µM).
On the same count and under the same terms, next, `COc1ccc(CCN2CN=C(SCc3cc(Cl)cc(Cl)c3)NC2)cc1OC`: 16 µg/mL (≈ 36.3 µM); `COc1ccc(CCN2CN=C(SCc3cccc(Cl)c3)NC2)cc1OC`: greater than 256 µg/mL.
Consider `Cc1cc(NS(=O)(=O)c2ccc(N)cc2)no1`, for which the inhibition result in experiment [2], in experiment [3], in experiment [4], in experiment [5], in experiment [6] and in experiment [7] was “Active” in each case. In addition, the inhibition result in experiment [8] is “Active”.
For the compound `CN[C@@H]1[C@H](O)[C@H](NC)[C@H]2O[C@@]3(O)C(=O)C[C@@H](C)O[C@H]3O[C@@H]2[C@H]1O`, the inhibition entry in experiment [2], in experiment [3], in experiment [6] and in experiment [7] was “Active” each time.
In experiment [1], `COc1ccc(CCN2CN=C(SCc3ccccc3Cl)NC2)cc1OC` displayed an MIC greater than 256 µg/mL.
Still for that read-out and setting: next, `COc1ccc(CCN2CN=C(SCc3ccc(Cl)c(Cl)c3)NC2)cc1OC`: 8 µg/mL (≈ 18.2 µM).

Usually MIC stands for the lowest concentration that inhibits growth of the organism.
